The values that follow are results of earlier work, collected in US20220249381A1, “COMPRESSED MACITENTAN COMPOSITIONS, METHODS AND USES THEREOF” (TECNIMEDE - SOCIEDADE TÉCNICO-MEDICINAL, SA, priority 2019, published 2022).

Each structure is given as a SMILES string.

In the case of `CCCNS(=O)(=O)Nc1ncnc(OCCOc2ncc(Br)cn2)c1-c1ccc(Br)cc1` [Macitentan, N-[5-(4-Bromophenyl)-6-[2-[(5-bromo-2-pyrimidinyl)oxy]ethoxy]-4-pyrimidinyl]-N′propylsulfamide], the solubility entry (BCS characterisation) was “low solubility”. Also, the “solubility in organic solvents” value (methanol and ethanol) is listed as “only slightly soluble”. Further, the “solubility in aqueous solutions” value (room temperature, pH 1.2, 4, 6.8, 7, 9) is on record as “insoluble”.
